# Data taken from PubChem BioAssay AID2060500 (Molecular Pharmacology Branch, DTP, NCI, 2025).
# System: 596521-263-R-J1-PDC complex spheroids, viability % of control
# Experiment: Anticancer human tumor 596521-263-R-J1-PDC patient-derived soft tissue sarcoma cell line growth inhibition [GQUAD]
# Details: for IC50: curve of first compound; for viability, T/C: stronger effect = lower value
# In short: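 Viability of tumor cells grown as complex spheroids with endothelial and stromal cells, exposed to drug combinations. Top concentration at or near clinical Cmax (else 10 microM), diluted in half-log increments.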
# [1] = second compound 0.0316 µM, first compound 0.0316 µM
# [2] = second compound 0.0316 µM, first compound 0.1 µM
# [3] = second compound 0.0316 µM, first compound 0.316 µM
# [4] = second compound 0.0316 µM, first compound 1 µM
# [5] = second compound 0.0316 µM, first compound 3.16 µM
# [6] = second compound 0.0316 µM, first compound 10 µM
# [7] = second compound 0.1 µM, first compound 0.0316 µM
# [8] = second compound 0.1 µM, first compound 0.1 µM
# [9] = second compound 0.1 µM, first compound 0.316 µM
# [10] = second compound 0.1 µM, first compound 1 µM
# [11] = second compound 0.1 µM, first compound 3.16 µM
# [12] = second compound 0.1 µM, first compound 10 µM
# [13] = second compound 0.316 µM, first compound 0.0316 µM
# [14] = second compound 0.316 µM, first compound 0.1 µM
# [15] = second compound 0.316 µM, first compound 0.316 µM
# [16] = second compound 0.316 µM, first compound 1 µM
# [17] = second compound 0.316 µM, first compound 3.16 µM
# [18] = second compound 0.316 µM, first compound 10 µM
# [19] = second compound 1 µM, first compound 0.0316 µM
# [20] = second compound 1 µM, first compound 0.1 µM
# [21] = second compound 1 µM, first compound 0.316 µM
# [22] = second compound 1 µM, first compound 1 µM
# [23] = second compound 1 µM, first compound 3.16 µM
# [24] = second compound 1 µM, first compound 10 µM
# [25] = second compound 3.16 µM, first compound 0.0316 µM
# [26] = second compound 3.16 µM, first compound 0.1 µM
# [27] = second compound 3.16 µM, first compound 0.316 µM
# [28] = second compound 3.16 µM, first compound 1 µM
# [29] = second compound 3.16 µM, first compound 3.16 µM
# [30] = second compound 3.16 µM, first compound 10 µM
# [31] = second compound 10 µM, first compound 0.0316 µM
# [32] = second compound 10 µM, first compound 0.1 µM
# [33] = second compound 10 µM, first compound 0.316 µM
# [34] = second compound 10 µM, first compound 1 µM
# [35] = second compound 10 µM, first compound 3.16 µM
# [36] = second compound 10 µM, first compound 10 µM
# 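Also: spheroids exposed to drugs for 7 days before viability reading.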
# 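For viability, T/C in this document: 100% = DMSO vehicle control viability.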
smiles,measurement,setting,value
C=CCn1c(=O)c2cnc(Nc3ccc(N4CCN(C)CC4)cc3)nc2n1-c1cccc(C(C)(C)O)n1 + Cc1cnc(CNC(=O)c2c(=O)c3ccc(N4CCCN(C)CC4)nc3n3c2sc2ccccc23)cn1,IC50,second compound 0.0316 µM,769 nM
same,IC50,second compound 0.1 µM,481 nM
same,IC50,second compound 0.316 µM,343 nM
same,IC50,second compound 1 µM,592 nM
same,IC50,second compound 3.16 µM,196 nM
same,IC50,second compound 10 µM,< 31.6 nM
same,"viability, T/C",[1],88.4%
same,"viability, T/C",[2],79.2%
same,"viability, T/C",[3],61.2%
same,"viability, T/C",[4],48.8%
same,"viability, T/C",[5],32.6%
same,"viability, T/C",[6],31.4%
same,"viability, T/C",[7],78.3%
same,"viability, T/C",[8],72.9%
same,"viability, T/C",[9],55.3%
same,"viability, T/C",[10],40.8%
same,"viability, T/C",[11],38.3%
same,"viability, T/C",[12],40.8%
same,"viability, T/C",[13],84.8%
same,"viability, T/C",[14],62.2%
same,"viability, T/C",[15],50.7%
same,"viability, T/C",[16],40.9%
same,"viability, T/C",[17],38.5%
same,"viability, T/C",[18],26.8%
same,"viability, T/C",[19],62.9%
same,"viability, T/C",[20],60%
same,"viability, T/C",[21],58.4%
same,"viability, T/C",[22],41.9%
same,"viability, T/C",[23],36.5%
same,"viability, T/C",[24],24.3%
same,"viability, T/C",[25],50.6%
same,"viability, T/C",[26],54.3%
same,"viability, T/C",[27],49.1%
same,"viability, T/C",[28],39.1%
same,"viability, T/C",[29],32.7%
same,"viability, T/C",[30],25.6%
same,"viability, T/C",[31],43.4%
same,"viability, T/C",[32],12.9%
same,"viability, T/C",[33],36.4%
same,"viability, T/C",[34],33.8%
same,"viability, T/C",[35],20.8%
same,"viability, T/C",[36],0.23%
CC(C)(O)C1CCC(Nc2ccc3ncc(-c4cccc(C(F)(F)F)c4)n3n2)CC1 (stereo unspecified) + Cc1cnc(CNC(=O)c2c(=O)c3ccc(N4CCCN(C)CC4)nc3n3c2sc2ccccc23)cn1,IC50,second compound 0.0316 µM,1720 nM
same,IC50,second compound 0.1 µM,1320 nM
same,IC50,second compound 0.316 µM,1010 nM
same,IC50,second compound 1 µM,830 nM
same,IC50,second compound 3.16 µM,< 31.6 nM
same,IC50,second compound 10 µM,< 31.6 nM
same,"viability, T/C",[1],89.8%
same,"viability, T/C",[2],82.3%
same,"viability, T/C",[3],88.3%
same,"viability, T/C",[4],77.7%
same,"viability, T/C",[5],18.8%
same,"viability, T/C",[6],14.4%
same,"viability, T/C",[7],81.9%
same,"viability, T/C",[8],79.9%
same,"viability, T/C",[9],74.2%
same,"viability, T/C",[10],59.5%
same,"viability, T/C",[11],20.5%
same,"viability, T/C",[12],18.2%
same,"viability, T/C",[13],72.3%
same,"viability, T/C",[14],69.5%
same,"viability, T/C",[15],68.6%
same,"viability, T/C",[16],50.5%
same,"viability, T/C",[17],18.4%
same,"viability, T/C",[18],15.9%
same,"viability, T/C",[19],57.6%
same,"viability, T/C",[20],53.6%
same,"viability, T/C",[21],63.1%
same,"viability, T/C",[22],47.8%
same,"viability, T/C",[23],21.7%
same,"viability, T/C",[24],15.1%
same,"viability, T/C",[25],46.6%
same,"viability, T/C",[26],46.5%
same,"viability, T/C",[27],51.7%
same,"viability, T/C",[28],45.2%
same,"viability, T/C",[29],0.12%
same,"viability, T/C",[30],0.13%
same,"viability, T/C",[31],33.3%
same,"viability, T/C",[32],13.8%
same,"viability, T/C",[33],41.2%
same,"viability, T/C",[34],0.19%
same,"viability, T/C",[35],0.23%
same,"viability, T/C",[36],0.18%
COc1ncnc(C2CC2)c1-c1ncc2cnn(Cc3ccc(-c4nc(C(F)(F)F)cn4C(C)C)cc3)c2n1 + Cc1cnc(CNC(=O)c2c(=O)c3ccc(N4CCCN(C)CC4)nc3n3c2sc2ccccc23)cn1,IC50,second compound 0.0316 µM,> 10000 nM
same,IC50,second compound 0.1 µM,> 10000 nM
same,IC50,second compound 0.316 µM,> 10000 nM
same,IC50,second compound 1 µM,> 10000 nM
same,IC50,second compound 3.16 µM,> 10000 nM
same,IC50,second compound 10 µM,< 31.6 nM
same,"viability, T/C",[1],90.2%
same,"viability, T/C",[2],90.6%
same,"viability, T/C",[3],78%
same,"viability, T/C",[4],90.4%
same,"viability, T/C",[5],86.9%
same,"viability, T/C",[6],79%
same,"viability, T/C",[7],84.4%
same,"viability, T/C",[8],77.2%
same,"viability, T/C",[9],74.7%
same,"viability, T/C",[10],77.1%
same,"viability, T/C",[11],85%
same,"viability, T/C",[12],79.2%
same,"viability, T/C",[13],72%
same,"viability, T/C",[14],74.2%
same,"viability, T/C",[15],67.9%
same,"viability, T/C",[16],79.5%
same,"viability, T/C",[17],70.2%
same,"viability, T/C",[18],65.7%
same,"viability, T/C",[19],62.8%
same,"viability, T/C",[20],65%
same,"viability, T/C",[21],65.1%
same,"viability, T/C",[22],63.1%
same,"viability, T/C",[23],64%
same,"viability, T/C",[24],61.9%
same,"viability, T/C",[25],53.1%
same,"viability, T/C",[26],59.2%
same,"viability, T/C",[27],51.6%
same,"viability, T/C",[28],48.6%
same,"viability, T/C",[29],59.8%
same,"viability, T/C",[30],49.9%
same,"viability, T/C",[31],44.6%
same,"viability, T/C",[32],25.6%
same,"viability, T/C",[33],41.5%
same,"viability, T/C",[34],42.6%
same,"viability, T/C",[35],40.7%
same,"viability, T/C",[36],0.28%
